Drawing on patent US9603833B2, “Benzene or thiophene derivative and use thereof as VAP-1 inhibitor” (R-Tech Ueno, Ltd., priority 2008, dated 2017), this text covers IC50 for 10 compounds.

SMILES strings stand for the structures. Structures can show the parent of a compound that is named as a salt.

What all share (format): biochemical
The target of one assay is human MAO-B (Homo sapiens (Human), UniProt P27338). The assay is described as follows: Inhibitory effect on human MAO-B, MAO Detection Kit (Fluoro MAO). To be noted: gene recombinant human MAO-B; fluorescence at 590 nm; 37° C., 2 hrs; read-out: MAO-B inhibition IC50. On the procedure: (§1) The compounds of the present invention obtained in the Production Examples were examined for the inhibitory effect on human monoamineoxydase enzymes (MAO-A and MAO-B) by the following method.
Sequence of human MAO-B (P27338 whole entry): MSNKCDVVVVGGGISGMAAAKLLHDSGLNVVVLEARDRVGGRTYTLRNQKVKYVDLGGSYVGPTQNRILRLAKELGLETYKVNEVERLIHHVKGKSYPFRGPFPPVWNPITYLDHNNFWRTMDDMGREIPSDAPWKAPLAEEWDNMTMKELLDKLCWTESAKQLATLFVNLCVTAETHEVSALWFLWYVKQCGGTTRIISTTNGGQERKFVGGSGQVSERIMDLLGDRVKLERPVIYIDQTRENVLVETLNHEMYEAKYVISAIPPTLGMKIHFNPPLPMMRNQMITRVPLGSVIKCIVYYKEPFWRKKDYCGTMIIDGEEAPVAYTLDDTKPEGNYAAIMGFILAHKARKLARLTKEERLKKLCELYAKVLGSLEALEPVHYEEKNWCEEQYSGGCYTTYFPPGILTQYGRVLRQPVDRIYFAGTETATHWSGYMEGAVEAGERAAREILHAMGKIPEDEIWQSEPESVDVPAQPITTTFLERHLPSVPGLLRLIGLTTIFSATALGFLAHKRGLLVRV
(§2) Gene recombinant human MAO-A and MAO-B enzymes were purchased from Sigma Ltd. The human MAO-A and MAO-B activities were measured using MAO Detection Kit (Fluoro MAO, Cell Technology Inc.). Assay was performed in a 96-well plate. 1× Reaction buffer (40 μl) was added to each well, and 50 μl (5 mg/ml) of MAO-A or MAO-B was added. Then, test compound solutions (final concentration 1×10^−4-1×10^−10 mol/l) (10 μl) were added and the mixtures were incubated at 37° C. for 20 mins. Reaction cocktail (100 μl) was added, and the mixtures (final volume 200 μl) were incubated at 37° C. for 2 hrs. Thereafter, the fluorescence at 590 nm was detected with an excitation wavelength of 570 nm using a multispectro microplate reader (Varioskan, Thermo Fisher Scientific K.K.).

The target in another assay is rat VAP-1 enzyme (SSAO) (Rattus norvegicus (Rat), UniProt O08590). The assay is described as follows: Inhibitory effect on rat VAP-1 enzyme (SSAO), radiochemical-enzyme assay using 14C-benzylamine. To be noted: rat VAP-1 expressed in a cell, cell extract; 14C-benzylamine 1×10^−5 mol/L; 37° C., 2 hours. On the procedure: (§3) The compounds of the present invention obtained in Production Examples were examined for the inhibitory effect on human and rat VAP-1 enzyme (SSAO) by the following method.
Sequence of rat VAP-1 enzyme (SSAO) (O08590 whole entry): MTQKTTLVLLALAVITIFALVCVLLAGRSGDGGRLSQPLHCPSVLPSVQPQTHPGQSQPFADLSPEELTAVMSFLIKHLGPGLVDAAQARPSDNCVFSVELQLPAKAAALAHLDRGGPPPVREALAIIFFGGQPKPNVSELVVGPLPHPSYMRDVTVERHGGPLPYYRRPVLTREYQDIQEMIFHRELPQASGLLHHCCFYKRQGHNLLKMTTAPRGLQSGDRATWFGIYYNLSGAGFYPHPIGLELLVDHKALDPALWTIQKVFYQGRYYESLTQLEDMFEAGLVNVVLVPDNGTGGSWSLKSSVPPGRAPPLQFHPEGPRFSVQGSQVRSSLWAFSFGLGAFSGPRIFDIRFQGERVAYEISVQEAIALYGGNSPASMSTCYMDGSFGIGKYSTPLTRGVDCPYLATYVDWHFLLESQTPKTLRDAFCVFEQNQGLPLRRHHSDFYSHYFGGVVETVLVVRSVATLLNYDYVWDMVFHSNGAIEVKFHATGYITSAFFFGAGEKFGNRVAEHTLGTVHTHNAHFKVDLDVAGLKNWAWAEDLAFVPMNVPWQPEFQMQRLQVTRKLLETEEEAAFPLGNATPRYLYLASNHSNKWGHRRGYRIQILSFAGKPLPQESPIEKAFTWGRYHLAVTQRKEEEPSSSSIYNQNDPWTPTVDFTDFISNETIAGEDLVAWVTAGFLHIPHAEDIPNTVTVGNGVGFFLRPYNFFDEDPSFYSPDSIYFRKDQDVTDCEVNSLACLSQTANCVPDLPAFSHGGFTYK
(§4) The VAP-1 enzyme (SSAO) activity in both human and rat was measured by a radiochemical-enzyme assay using ^14C-benzylamine as an artificial substrate. Human or rat VAP-1 was cloned from the cDNA library and expressed in a cell. The cell extract was preincubated with a test compound solution (final concentration 1×10^−7-1×10^−10 mol/L) at room temperature for 20 minutes. Then, ^14C-benzylamine (final concentration 1×10^−5 mol/L) was added, and the mixture was incubated at a final volume of 200 μL at 37° C. for 2 hours. The enzyme reaction was stopped by addition of 2 mol/L (200 μL) citric acid. The oxidation product was extracted with 1 mL toluene/ethyl acetate (1:1), and the radioactivity thereof was measured by a liquid scintillation counter.

For assay [1], the target named is human VAP-1 enzyme (SSAO) (Homo sapiens (Human), UniProt Q16853). The assay is described as follows: Inhibitory effect on human VAP-1 enzyme (SSAO), radiochemical-enzyme assay using 14C-benzylamine. To be noted: human VAP-1 expressed in a cell, cell extract; 14C-benzylamine 1×10^−5 mol/L; 37° C., 2 hours. As to the method:
as §3, §4

Another assay concerns the target human MAO-A (Homo sapiens (Human), UniProt P21397). As to the kind of experiment: Inhibitory effect on human MAO-A, MAO Detection Kit (Fluoro MAO). The note with it: gene recombinant human MAO-A; fluorescence at 590 nm; 37° C., 2 hrs; read-out: MAO-A inhibition IC50. As to the method:
as §1, §2

As usually defined, the IC50 is the concentration at which inhibition is half-maximal.

Sequence of human VAP-1 enzyme (SSAO) (Q16853 whole entry): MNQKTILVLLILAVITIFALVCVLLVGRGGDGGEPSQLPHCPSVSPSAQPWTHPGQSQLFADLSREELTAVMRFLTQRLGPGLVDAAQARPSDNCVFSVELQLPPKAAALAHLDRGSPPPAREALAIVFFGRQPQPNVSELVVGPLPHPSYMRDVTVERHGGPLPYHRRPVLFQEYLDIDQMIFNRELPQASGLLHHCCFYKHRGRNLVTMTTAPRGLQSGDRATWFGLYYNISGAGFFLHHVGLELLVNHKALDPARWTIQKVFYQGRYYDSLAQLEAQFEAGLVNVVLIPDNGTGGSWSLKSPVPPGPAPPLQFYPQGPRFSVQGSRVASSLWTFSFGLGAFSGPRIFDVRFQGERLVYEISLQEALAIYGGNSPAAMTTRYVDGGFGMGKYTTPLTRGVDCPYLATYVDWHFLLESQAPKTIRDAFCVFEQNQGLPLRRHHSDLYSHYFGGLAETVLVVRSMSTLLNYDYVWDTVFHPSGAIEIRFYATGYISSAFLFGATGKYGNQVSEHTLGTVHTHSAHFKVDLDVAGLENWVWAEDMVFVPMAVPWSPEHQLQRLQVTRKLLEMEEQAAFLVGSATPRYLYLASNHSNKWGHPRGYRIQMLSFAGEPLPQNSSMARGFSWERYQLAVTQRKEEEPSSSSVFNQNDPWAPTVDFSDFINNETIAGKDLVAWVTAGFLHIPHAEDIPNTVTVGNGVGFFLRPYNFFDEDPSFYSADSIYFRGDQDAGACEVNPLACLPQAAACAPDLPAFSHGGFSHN
Sequence of human MAO-A (P21397 whole entry): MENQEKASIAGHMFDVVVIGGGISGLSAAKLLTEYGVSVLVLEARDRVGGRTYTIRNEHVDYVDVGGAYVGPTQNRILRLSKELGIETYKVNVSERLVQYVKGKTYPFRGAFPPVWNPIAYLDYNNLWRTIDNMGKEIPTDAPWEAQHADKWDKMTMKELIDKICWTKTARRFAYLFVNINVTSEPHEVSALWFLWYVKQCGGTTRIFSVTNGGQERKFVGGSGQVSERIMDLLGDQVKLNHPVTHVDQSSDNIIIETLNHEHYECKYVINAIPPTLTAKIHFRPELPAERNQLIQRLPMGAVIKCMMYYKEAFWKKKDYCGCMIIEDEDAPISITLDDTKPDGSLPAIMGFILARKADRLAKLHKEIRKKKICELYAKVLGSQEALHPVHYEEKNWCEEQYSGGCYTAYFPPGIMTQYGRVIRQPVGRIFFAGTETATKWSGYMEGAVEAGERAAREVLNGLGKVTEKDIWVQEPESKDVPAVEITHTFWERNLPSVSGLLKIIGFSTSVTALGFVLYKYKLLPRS

On to `NNC(=O)Cc1ccc(CCc2cccc(N3CCNCC3)n2)cc1` [Production Example 51, 2-{4-[2-(6-piperazin-1-ylpyridin-2-yl)ethyl]phenyl}acetohydrazide tetrahydrochloride], for which the IC50 is greater than 100 µM on human MAO-B, 29.4 nM against rat VAP-1 enzyme (SSAO), 9.8 nM in assay [1] and greater than 100 µM at human MAO-A.

Take `CN1CCN(c2ccc(CCc3ccc(CC(=O)NN)cc3)cc2)CC1` [Production Example 35, 2-(4-{2-[4-(4-methylpiperazin-1-yl)phenyl]ethyl}phenyl)acetohydrazide trihydrochloride]: the IC50 at human MAO-B and on human MAO-A was greater than 100 µM throughout.

Turning to `CC(=O)N1CCN(c2ccc(CCc3ccc(CC(=O)NN)cc3)nc2)CC1` [Production Example 87, 2-(4-{2-[5-(4-acetylpiperazin-1-yl)pyridin-2-yl]ethyl}phenyl)acetohydrazide trihydrochloride], the IC50 was greater than 100 µM on human MAO-B, 1.4 nM against rat VAP-1 enzyme (SSAO), 3.2 nM in assay [1] and greater than 100 µM at human MAO-A.

As to `NNC(=O)Cc1ccc(CCc2ccnc(N3CCNCC3)c2)cc1` [Production Example 105, 2-{4-[2-(2-piperazin-1-ylpyridin-4-yl)ethyl]phenyl}acetohydrazide tetrahydrochloride], the IC50 on human MAO-B was greater than 100 µM; against rat VAP-1 enzyme (SSAO), 7.2 nM; in assay [1], 7.3 nM; on human MAO-A, greater than 100 µM.

As to `CC(=O)N1CCN(c2ccc(CCc3ccc(CCNC(=O)NN)s3)nc2)CC1` [Production Example 117, N-[2-(5-{2-[5-(4-acetylpiperazin-1-yl)pyridin-2-yl]ethyl}thiophen-2-yl)ethyl]hydrazinecarboxamide], the figures for the IC50 (on rat VAP-1 enzyme (SSAO); in assay [1]) were 2.7 nM and 18.7 nM, respectively.

Consider `CC(=O)N1CCN(c2ccc(CCc3ccc(OC(=O)NN)cc3)nc2)CC1` [Production Example 110, 4-{2-[5-(4-acetylpiperazin-1-yl)pyridin-2-yl]ethyl}phenyl hydrazinecarboxylate trihydrochloride], for which the IC50 on rat VAP-1 enzyme (SSAO) was 1.6 nM; in assay [1], 3.5 nM.

In the case of `CCN(CCN)c1ccc(CCc2ccc(CC(=O)NN)cc2)cc1` [Production Example 83, 2-[4-(2-{4-[(2-aminoethyl)(ethyl)amino]phenyl}ethyl)phenyl]acetohydrazide trihydrochloride], the IC50 at rat VAP-1 enzyme (SSAO) was found to be 5.8 nM; in assay [1] it was 20.4 nM.

With `CC(=O)N1CCN(c2ccc(CCc3ccc(CC(=O)NN)s3)nc2)CC1` [Production Example 120, 2-(5-{2-[5-(4-acetylpiperazin-1-yl)pyridin-2-yl]ethyl}thiophen-2-yl)acetohydrazide], the IC50 against rat VAP-1 enzyme (SSAO) turned out to be 0.6 nM; in assay [1] it was 3.7 nM.

As to `CC(=O)N1CCN(c2ccc(CCc3ccc(CC(=O)NN)cc3)cn2)CC1` [Production Example 47, 2-(4-{2-[6-(4-acetylpiperazin-1-yl)pyridin-3-yl]ethyl}phenyl)acetohydrazide trihydrochloride], the IC50 worked out at 3.6 nM on rat VAP-1 enzyme (SSAO) and 16.1 nM in assay [1].

For `CC(=O)N1CCN(c2ccc(CCc3csc(CCC(=O)NN)c3)nc2)CC1` [Production Example 121, 3-(4-{2-[5-(4-acetylpiperazin-1-yl)pyridin-2-yl]ethyl}thiophen-2-yl)propanehydrazide trihydrochloride], the figures for the IC50 (against rat VAP-1 enzyme (SSAO); in assay [1]) were 1.6 nM and 2.2 nM, respectively.
